Test results as given in the supplement of paper PMC4862054.

Key:
Details in all cases: incubation time: 72 h
[1] = tested on: BT-474; assay: drug sensitivity score (DSS), CellTiter-Glo (DSS (AUC-based score)); higher = stronger drug effect (viability inhibition or cytotoxicity); extreme values may be limits of the assay
Method in brief: (§1)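 Plates with 384 wells held compound at 5 concentrations in 10-fold steps over a 10,000-fold range specific to each compound. Breast cancer cell lines were added in 20 µl suspension and incubated 72 h, then read for CellTox Green and CellTiter-Glo signals, with each plate normalised to 0.1 % DMSO and a positive kill control. The drug sensitivity score is based on the area under the fitted dose-response curve.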

[2] = tested on: BT-549; assay: as above
Method in brief: as §1

[3] = tested on: CAL-120; assay: as above
Method in brief: as §1

[4] = tested on: CAL-148; assay: as above
Method in brief: as §1

[5] = tested on: CAL-51; assay: as above
Method in brief: as §1

[6] = tested on: CAL-85-1; assay: as above
Method in brief: as §1

[7] = tested on: DU-4475; assay: as above
Method in brief: as §1

[8] = tested on: HCC1143; assay: as above
Method in brief: as §1

[9] = tested on: HCC1599; assay: as above
Method in brief: as §1

[10] = tested on: HCC1937; assay: as above
Method in brief: as §1

[11] = tested on: HDQ-P1; assay: as above
Method in brief: as §1

[12] = tested on: Hs578T; assay: as above
Method in brief: as §1

[13] = tested on: MCF-10A; assay: as above
Method in brief: as §1

[14] = tested on: MDA-MB-231; assay: as above
Method in brief: as §1

[15] = tested on: MDA-MB-436; assay: as above
Method in brief: as §1

[16] = tested on: MDA-MB-453; assay: as above
Method in brief: as §1

[17] = tested on: MDA-MB-468; assay: as above
Method in brief: as §1

[18] = tested on: MFM-223; assay: as above
Method in brief: as §1

[19] = tested on: SK-BR-3; assay: as above
Method in brief: as §1

[20] = tested on: BT-549; assay: drug sensitivity score (DSS), CellTox Green (DSS (AUC-based score)); higher = stronger drug effect (viability inhibition or cytotoxicity); extreme values may be limits of the assay
Method in brief: as §1

[21] = tested on: CAL-51; assay: as above
Method in brief: as §1

[22] = tested on: DU-4475; assay: as above
Method in brief: as §1

[23] = tested on: HCC1599; assay: as above
Method in brief: as §1

[24] = tested on: HDQ-P1; assay: as above
Method in brief: as §1

[25] = tested on: Hs578T; assay: as above
Method in brief: as §1

[26] = tested on: MDA-MB-436; assay: as above
Method in brief: as §1

[27] = tested on: MDA-MB-468; assay: as above
Method in brief: as §1

Compound	drug sensitivity score [1]	drug sensitivity score [2]	drug sensitivity score [3]	drug sensitivity score [4]	drug sensitivity score [5]	drug sensitivity score [6]	drug sensitivity score [7]	drug sensitivity score [8]	drug sensitivity score [9]	drug sensitivity score [10]	drug sensitivity score [11]	drug sensitivity score [12]	drug sensitivity score [13]	drug sensitivity score [14]	drug sensitivity score [15]	drug sensitivity score [16]	drug sensitivity score [17]	drug sensitivity score [18]	drug sensitivity score [19]	drug sensitivity score [20]	drug sensitivity score [21]	drug sensitivity score [22]	drug sensitivity score [23]	drug sensitivity score [24]	drug sensitivity score [25]	drug sensitivity score [26]	drug sensitivity score [27]
CO[C@H]1C[C@@H]2CC[C@@H](C)[C@@](O)(O2)C(=O)C(=O)N2CCCC[C@H]2C(=O)O[C@H]([C@H](C)C[C@@H]2CC[C@@H](OP(C)(C)=O)[C@H](OC)C2)CC(=O)[C@H](C)/C=C(\C)[C@@H](O)[C@@H](OC)C(=O)[C@H](C)C[C@H](C)/C=C/C=C/C=C/1C [Ridaforolimus]	1.18	12.4	8.4	7.53	8.46	8.38	4.31	8.23	0	7.76	2.99	9.58	0	0	4.1	8.14	12.7	6.61	10.4	0	0	0	0	12.6	0	4.09	0
c1ccc2c(CCNc3ccc(Nc4ccncc4)cc3)c[nH]c2c1 [Serdemetan]	4.79	6.83	0	7.11	15.9	1.35	7.09	0	3.17	3.14	2.35	0.96	0	3.86	2.94	1.37	7.12	1.34	6.23	0	4.55	1.51	0	0	0	0	0
CN(C)CCOc1ccc(/C(=C(/CCCl)c2ccccc2)c2ccccc2)cc1 [Toremifene]	1.35	0	0	0	0	0	0	0	0	1.98	0	0	1.79	0	0	0	0	0.949	0	0	0	0	0	0	0	0	4.22
CC(C)C[C@@H](C(=O)N[C@H](C(=O)OC1CCCC1)c1ccccc1)[C@H](O)C(=O)NO [Tosedostat]	16.9	12.3	12.7	5.14	4.55	12.7	0	5.96	0	8.46	5.25	2.74	0	11.1	5.37	14.1	19.1	6.14	0	9.06	15.2	0	0	10.1	1.64	10.1	20.1
COc1cc2c(NC3CCN(C(C)C)CC3)nc(N3CCC(F)(F)CC3)nc2cc1OCCCN1CCCC1 [UNC0642]	1.75	0	0	3.63	0	5.86	0	0	0	1.97	0.93	0	3.66	3.72	4.42	5.58	7.75	3.31	2.71	0	0	0	0	0	0	11	5.22
COc1cc2/c(=N/c3ccc(Br)cc3F)nc[nH]c2cc1OCC1CCN(C)CC1 [Vandetanib]	3.47	0	0.197	0	0.137	0	0	0	0	0	0	0	10.3	0	0.551	0	4.76	0.335	0	0	0	0	0	1.32	0	0	0
COCC[n+]1c2c(n(Cc3cnccn3)c1C)C(=O)c1ccccc1C2=O [YM155]	40	25.8	42.3	33	33.8	39.2	27.1	35.2	35.3	35.3	33.5	18.8	29.5	37.8	40.6	29.6	41.9	28.4	33	20.2	28.2	3.34	11.8	30.2	5.6	27.2	37.3
